Laboratory results published in patent publication US6603023B2 (priority 1996, dated 2003).
pIC50: −log10 of the molar value. Where “and” joins values, the source holds several entries; their conditions need not be identical. Equal entries are not always repeated. Where two headings read alike, the source gives them in different places.

Tests used:
[1] = system: CCRF-CEM human T-cell acute lymphoblastic leukemia cell line; test: XTT cytotoxicity (cell growth inhibition), CCRF-CEM
Outline: (§1)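 XTT microculture tetrazolium readout, duplicate wells: 72 h compound incubation, then PMS-XTT (0.025 mM PMS) added, 4 h 37 °C, A450 and A630 measured. Suspension cells in RPMI-1640/10% FBS, 5×10^4 cells/mL; resistant sublines maintained with selecting drug.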

[2] = system: A549 Human Lung Carcinoma; test: A549 xenograft; format: in vivo, nude mice
DC-3F/ADX = test: cells; format: cell-based, hamster; details: DC3F/ADX, Table 3
Procedure: (§2) The DC-3F hamster lung fibroblast cell line and its actinomycin D-selected sublines (DC-3F/ADII and DC-3F/ADX) were obtained from the Memorial Sloan-Kettering Cancer Center (MSKCC).
(§3) The drug-resistant cell lines were continuously cultured in the presence of the selecting agent, AD, DX, VBL or VM to maintain the drug resistant phenotypes. […] All cells were cultured in RPMI 1640-10% FBS at 37° C. 5% CO2 (see below).
(§4) The cytotoxicity of the drug toward the monolayer cell cultures (such as DC-3F, MCF-7, SK-N-As and sublines) was determined in 96-well microtiter plates by the SRB method as described by Skehan and co-workers (Skehan, P., et al., J. Natl. Cancer Inst. 1990, 82, 1107-1112) for measuring the cellular protein content. Cultures were fixed with trichloroacetic acid and then stained for 30 min with 0.4% suforhodamine B dissolved in 1% acetic acid. Unbound dye was removed by acetic acid washes, and the protein-bound dye was extracted with an unbuffered Tris base (tris(hydroxy-methyl)aminomethane) for determination of absorbance at 570 nm in a 96-well microtiter plate reader. The experiments were carried out in duplicate. Each run entailed six to seven concentrations of the tested drugs. Data were analyzed with the median-effect plot (Chou, T.-C. & Talalay, P. T. (1984) Adv. Enzyme Regul. 22, 27-55) using a previously described computer program (Chou, J., & Chou T.-C. 1987, Dose-effect analysis with microcomputers: Quantitation of ED50, synergism, antagonism, low-dose risk, reception-ligand binding and enzyme kinetics, IBM-PC software and manual, Biosoft, Cambridge, U.K.).
(§5) Concerning Table 3, experiments were carried out using the cell lines DC-3F (parent hamster lung cells), DC-3F/ADII (moderate multidrug-resistant (MDR) cells) and DC-3F/ADX (very strong MDR cells).

[3] = system: DC-3F hamster lung fibroblast cell line; test: SRB cytotoxicity, DC-3F; format: cell-based; details: Mesocricetus auratus, DC3F, Table 3
Procedure: as §2, §3, §4

CCRF-CEM/VBL100 = test: cells; format: cell-based, human; details: for pIC50: Homo sapiens, CCRF-CEM
Outline: as §1

CCRF-CEM/Taxol® = test: cells; format: cell-based, human
Outline: as §1

CCRF-CEM/VM1 = test: cells; format: cell-based, human
Outline: as §1

[4] = system: PC-3 Human Prostate Carcinoma; test: PC-3 xenograft; format: in vivo, nude mice
[5] = system: MDR human mammary adenocarcinoma MCF-7/Adr xenograft; test: in vivo; details: MCF-7/Adr; i.v. infusion (order wraps over rows r16-r17)
Procedure: DMSO was used as a vehicle for epothilones. Each mouse received ≦40 μL DMSO in all experiments.
Athymic nude mice (nu/nu) were used for MX-1 and MCF-7/Adr human mammary carcinoma xenografts. Mice were obtained from Taconic Laboratory Animals and Service (Germantown, N.Y.: outbred, Swiss background).

DC-3F/ADII = test: SRB cytotoxicity, DC-3F/ADII; format: cell-based, hamster; details: Mesocricetus auratus, DC3F
Procedure: as §2, §3, §4, §5

[6] = Homo sapiens, CCRF-CEM, 72 h, Table 1A, XTT
[7] = Homo sapiens, CCRF-CEM, Table 5, single determinations
[8] = Homo sapiens, CCRF-CEM, read-out: IC50 (mean ± of determinations, in parentheses), Table 5
[9] = Table 5, single determinations, listed as VP-16
[10] = Q2D x 3: dEpoB 30 mg/kg 18 hr i.v. infusion, Taxol 15 mg/kg 6 hr infusion, VBL 2 and VP-16 25 mg/kg i.v. inj
[11] = dEpoB 30 mg/kg 18 hr i.v. infusion, Taxol 16 mg/kg 6 hr infusion, VBL 2 and VP-16 25 mg/kg i.v. inj

Compound: COc1cc([C@@H]2c3cc4c(cc3[C@@H](O[C@@H]3O[C@@H]5CO[C@@H](C)O[C@H]5[C@H](O)[C@H]3O)[C@H]3COC(=O)[C@H]23)OCO4)cc(OC)c1O [Etoposide, etoposide]
- pIC50 ([1]; Homo sapiens, CCRF-CEM): 6.54
- pIC50 [1, 6]: 6.54
- pIC50 ([1]; Homo sapiens, CCRF-CEM, Table 2): 6.66
- pIC50 [1, 7]: 6.59
- pIC50 [1, 8]: 6.53
- pIC50 [1, 9]: 6.49 and 6.53
- Therapeutic effect Rank Order ([2]; A549, i.v. infusion): Taxol ®, dEpoB, VBL > VP-16
- Average Body Weight (change), Day 11 [2, 10]: +0.1 g
- Average Body Weight (change), Day 13 [2, 10]: -0.2 g
- Average Body Weight (change), Day 15 [2, 10]: -2.2 g
- Tumor Disappearance [2, 10]: 0/3
- Average Tumor Size, Day 11 ([2]; Q2D x 3: dEpoB 30 mg/kg 18 hr i.v. infusion, Taxol 15 mg/kg 6 hr infusion, VBL 2 and VP-16 25 mg/kg i.v. inj, control 96): 59 mm^3
- Average Tumor Size, Day 13 ([2]; Q2D x 3: dEpoB 30 mg/kg 18 hr i.v. infusion, Taxol 15 mg/kg 6 hr infusion, VBL 2 and VP-16 25 mg/kg i.v. inj, control 128): 150 mm^3
- Average Tumor Size, Day 15 ([2]; Q2D x 3: dEpoB 30 mg/kg 18 hr i.v. infusion, Taxol 15 mg/kg 6 hr infusion, VBL 2 and VP-16 25 mg/kg i.v. inj, control 306): 275 mm^3
- Average Tumor Size, Day 17 ([2]; Q2D x 3: dEpoB 30 mg/kg 18 hr i.v. infusion, Taxol 15 mg/kg 6 hr infusion, VBL 2 and VP-16 25 mg/kg i.v. inj, control 553): 536 mm^3
- Average Body Weight, Day 7 ([2]; initial weight, Q2D x 3: dEpoB 30 mg/kg 18 hr i.v. infusion, Taxol 15 mg/kg 6 hr infusion, VBL 2 and VP-16 25 mg/kg i.v. inj): 27.2 g
- pIC50 (DC-3F/ADX): 4.92
- pIC50 [3]: 7.47
- Potency in parentheses relative to Epo B in CCRF-CEM cells (CCRF-CEM/VBL100; CCRF-CEM/VBL MDR cells): 1/29514
- Potency in square brackets relative to Epo B in CCRF-CEM/VBL MDR cells (CCRF-CEM/VBL100; CCRF-CEM/VBL MDR cells): 1/4919
- pIC50 (CCRF-CEM/VBL100): 4.99
- pIC50 (CCRF-CEM/VBL100; 72 h, Table 1A, XTT): 4.99
- pIC50 (CCRF-CEM/VBL100; Table 2, CCRF-CEM/VLB): 5.13
- pIC50 (CCRF-CEM/VBL100; read-out: IC50 (mean ± of determinations, in parentheses), Table 5): 4.99
- (B)/(A) IC50 ratio (CCRF-CEM/VBL100; Table 1A, CCRF-CEM/VBL100 vs CCRF-CEM): 35
- relative resistance (fold) vs parent cell line (CCRF-CEM/VBL100; Table 5): (35.3X)
- pIC50 (CCRF-CEM/Taxol®; Homo sapiens, CCRF-CEM, 72 h): 5.88
- (C)/(A) IC50 ratio (CCRF-CEM/Taxol®; Table 1A, CCRF-CEM/Taxol vs CCRF-CEM): 4.5
- fold resistance vs parent CCRF-CEM (CCRF-CEM/VM1; CCRF-CEM/VM1 cells): 117 fold
- pIC50 (CCRF-CEM/VM1; [6]): 4.46
- pIC50 (CCRF-CEM/VM1; Homo sapiens, CCRF-CEM, Table 2, CCR-CEM/VM-1): 4.46
- pIC50 (CCRF-CEM/VM1; [7]): 4.46
- pIC50 (CCRF-CEM/VM1; [8]): 4.46
- (D)/(A) IC50 ratio (CCRF-CEM/VM1; Table 1A, CCRF-CEM/VM1 vs CCRF-CEM): 117
- relative resistance (fold) vs parent cell line (CCRF-CEM/VM1; Table 5): (117.4X)
- pIC50 (CCRF-CEM/VM1; [9]): 4.37 and 4.59
- Therapeutic effect Rank Order ([4]; PC-3, i.v. infusion (order wraps over rows r24-r25)): dEpoB >> VP-16
- Average Body Weight (change), Day 9 [4, 11]: +0.3 g
- Average Body Weight (change), Day 11 [4, 11]: -0.1 g
- Average Body Weight (change), Day 13 [4, 11]: -2.4 g
- Average Tumor Size (TC), Day 9 [4, 11]: 1.00 TC
- Average Tumor Size (TC), Day 11 [4, 11]: 1.12 TC
- Average Tumor Size (TC), Day 13 [4, 11]: 0.88 TC
- Tumor Disappearance [4, 11]: 0/3
- Average Body Weight, Day 5 ([4]; initial weight, dEpoB 30 mg/kg 18 hr i.v. infusion, Taxol 16 mg/kg 6 hr infusion, VBL 2 and VP-16 25 mg/kg i.v. inj): 24.9 g
- Therapeutic effect Rank Order [5]: dEpoB >> VP-16,
- pIC50 (DC-3F/ADII): 6.20
